Results as given in patent US20100240029A1, “Cholesterol-Regulating Complex of SIRT1 and LXR and Methods of Use” (Massachusetts Institute of Technology, priority 2006, published 2010).
Read-outs that look alike come from different tables or passages of the source. Peptide text beside a SMILES is read from it. * marks the point of attachment. Cbz = O=C(OCc1ccccc1)*

Tests used:
[1] = system: mouse ABCA1 promoter (LXRE); test: mouse ABCA1 promoter driven luciferase reporter assay in HEK293T cells; type: cell-based; details: for basal activity of control reporter missing the LXRE / induction of luciferase reporter driven by wildtype ABCA1 promoter: 6 h; for basal activity of control reporter missing the LXRE: 10 mM nicotinamide or 25 μM MG132; for induction of luciferase reporter driven by wildtype ABCA1 promoter: with 10 μM 22(R)—HC and 1 μM 9-cisRA, 10 mM nicotinamide, 25 μM MG132 or both; for inhibition of 22(R)—HC+9-cisRA-induced luciferase expression, wildtype ABCA1 promoter: 10 mM nicotinamide or 1 μM TSA
Protocol: The luciferase reporter plasmid pGL3-ABCA1 was created by inserting the −847 to +244 of mouse ABCA1 promoter region into KpnI-XhoI sites of pGL3 vector (Promega, Madison, Wi). pGL3-ABCA1-LXRE, the LXRE mutant version of pGL3-ABCA1, was created by deleting the LXRE from wildtype promoter of mouse ABCA1.
For the luciferase assay, MEFIs or HEK293T cells plated in 24-well plates were transfected with 100 ng of pGL3-ABCA1 or pGL3-ABCA1-LXRE, and 10 ng of pRL-TK (Renilla luciferase; Promega). The cells transfected with wildtype (WT) or LXRE mutant (−LXRE) mouse ABCA1 promoter driven luciferase reporter vectors were treated with 1 μM Trichostatin A (TSA), an inhibitor of class I and II deacetylases, or 10 mM nicotinamide (Nico), or both 10 mM nicotinamide+1 μM TSA. Cells transfected with the LXRE mutant vector were incubated in DMEM with 10% FBS in the absence (solid bars) or presence (open bars) of 10 μM 22(R)—HC and 1 μM 9-cisRA (FIG. 2b). Luciferase activity was then measured by using the Dual-Luciferase Reporter Assay System (Promega) 6 or 24 h later. The final GL (firefly luciferase) activity was normalized with co-expressed RL (Renilla luciferase) activity. The experiments were performed in duplicate and were repeated 3 times.
HEK293T cells transfected with wildtype (WT; FIG. 4g, left panel) or LXRE mutant (−LXRE; FIG. 4g, right panel) mouse ABCA1 promoter driven luciferase reporter vectors were treated with either 10 mM nicotinamide (Nico), 25 μM MG132, or both 10 mM nicotinamide+25 μM MG132, in the absence (solid bars) or presence (open bars) of 10 μM 22(R)—HC and 1 μM 9-cisRA for 6 h. Luciferase activities were measured and normalized as in Example 5.

HA-LXRβ = HA-LXRβ protein level in HEK293T cells by western blotting; type: cell-based, mouse; details: 6 h; for levels of HA-LXRβ protein: 1 μM TSA, 10 mM nicotinamide or 25 μM MG132
Protocol: HEK293T cells expressing HA-LXRβ driven by an exogenous CMV promoter were transfected either with pSuper vector, or with a pSuper-SIRT1 RNAi construct. Cells were harvested 3 days after transfection and the levels of HA-LXRβ and SIRT1 were analyzed by western blotting using antibodies to HA and SIRT1. […] Since there was no detectable reduction of LXR mRNA in SIRT1−/− mice (FIG. 3a), SIRT1 regulates LXR protein levels post-transcriptionally.
HEK293T cells expressing HA-LXRβ were treated with either control medium (FIG. 3c, lane 1), or medium with 1 μM TSA (lane 2), 10 mM nicotinamide (lane 3), 25 μM MG132 (carbobenzyloxy-Leu-Leu-Leu-al, a proteasome inhibitor) (lane 4), or 10 mM nicotinamide plus 25 μM MG132 (lane 5) for 6 h. Cells were then harvested and the levels of HA-LXRβ and SIRT1 were analyzed by western blotting using antibodies to HA (upper images) and SIRT1 (middle images). […] Since there was no detectable reduction of LXR's mRNA in SIRT1−/− mice (see Example 9, FIG. 3a), SIRT1 regulates LXR protein levels post-transcriptionally. It is believed that inhibition of SIRT1 activity by nicotinamide increases the protein levels of LXR by interfering with proteasome-mediated LXR degradation.
The basis for the finding that LXR activity is inversely correlated with protein levels was next examined. Since acetylation of lysine residues can block ubiquitination and SIRT1 is a deacetylase, loss of SIRT1 activity might stabilize LXR proteins by increasing the steady state level of LXR acetylation, thus inhibiting the ubiquitin/proteasome degradation pathway.

LXR targets = test: LXR target mRNAs in livers of mice fed T0901317 (real-time PCR); type: in vivo, mouse; details: 10 mg/kg oral gavage, 8 days
Excerpt: Total RNA was isolated from mouse livers, testes, thioglycolate-stimulated peritoneal macrophages, and ovaries by a Qiagen RNeasy mini-kit (Qiagen Inc., Calencia, Ca.). For real-time PCR analysis, cDNA was synthesized by SuperScript III reverse transcriptase (Invitrogen, Carlsbad, Calif.) with random primers. The resulting cDNA was then subjected to PCR analysis with gene-specific primers in the presence of Cybergreen (Qiagen Inc., Calencia, Ca.). Relative abundance of mRNA was obtained by normalization to cyclophilin levels. […] The mRNA levels of ABCA1 were quantified by phosphoimager and normalized against the corresponding actin levels.
To gain further insight into the effect of SIRT1 on LXR function in vivo, wildtype and SIRT1^−/− animals were analyzed for their response to 8-day oral administration of the LXR agonist T0901317 (N-(2,2,2-trifluoro-ethyl)-N-[4-(2,2,2-trifluoro-1-hydroxy-1-trifluoromethyl-ethyl)-phenyl]-benzenesulfonamide)^53.
2-6 month old SIRT1−/− and control males were fed with T0901317 (10 mg/kg) by oral gavage, plasma were collected before and after feeding for plasma lipid analyses. […] Total RNA from liver of wildtype animals without (black filled bar) or fed with 10 mg/kg T0901317 (black striped bar) and SIRT1^−/− mice without (open bar) or with T0901317 (gray striped bar) were analyzed by real-time PCR. […]

[2] = plasma and liver lipids of mice after 8-day oral T0901317; type: in vivo, mouse
Protocol: To determine the total cholesterol levels in mouse tissues, SIRT1^−/− mice and control littermates were fasted for four hours from the beginning of the daylight cycle before sacrificing. Tissues were then harvested and weighted. Total cholesterol from liver and testis were extracted and measured by GC as described previously^70, 71. Total lipids including triglycerides were also dissolved into a solution containing 60% butanol, 13% methanol, and 27% Triton X-100, and measured with the enzymatic, colorimetric assay kits from Wako.
2-6 month old SIRT1−/− and control males were fed with T0901317 (10 mg/kg) by oral gavage, plasma were collected before and after feeding for plasma lipid analyses. Tissues were collected after feeding for further analyses. Total RNA from liver of wildtype animals without (black filled bar) or fed with 10 mg/kg T0901317 (black striped bar) and SIRT1^−/− mice without (open bar) or with T0901317 (gray striped bar) were analyzed by real-time PCR. […] However, the induction of these targets in SIRT1^−/− mice was blunted. Total protein lysates were obtained from livers of indicated mice and analyzed for the levels of ABCA1 protein by immunoblotting (FIG. 3c). (As previously observed, ABCA1 proteins comprise multiple bands by western blotting^78.)
Plasma results in FIG. 3, panels d, e, and f represent the same mice before and after 8-days administration of T0901317. […]

[3] = through induction of SREBP-1c; cited from earlier work
THP-1 cells = test: apoAI-mediated [3H]cholesterol efflux from THP-1 cells; type: cell-based, human; details: THP-1, 10 mM nicotinamide for 48 h, efflux to 15 μg/ml apoAI for 24 h
Protocol: For the human monocytic cell line THP-1 cells, cells were treated with 10 mM nicotinamide in RPMI1640/10% FBS for 48 h, then cholesterol loaded with 50 μg/ml of LDL and 1 μCi/ml of [^3H]cholesterol in RPMI1640/1% FBS/0.2% BSA medium for 24 h. Cells were washed with PBS and incubated in RPMI 1640/0.2% BSA with or without 15 μg/ml apoAI for 24 h. The medium and cells were then separated, and cells were lysed with 0.2N NaOH. The radioactivity recovered in the medium and cell lysates were measured and the apoAI-mediated cholesterol efflux was calculated as described above.

[4] = system: T1, NH2-terminal HA-tagged mouse LXRβ
T1 sequence: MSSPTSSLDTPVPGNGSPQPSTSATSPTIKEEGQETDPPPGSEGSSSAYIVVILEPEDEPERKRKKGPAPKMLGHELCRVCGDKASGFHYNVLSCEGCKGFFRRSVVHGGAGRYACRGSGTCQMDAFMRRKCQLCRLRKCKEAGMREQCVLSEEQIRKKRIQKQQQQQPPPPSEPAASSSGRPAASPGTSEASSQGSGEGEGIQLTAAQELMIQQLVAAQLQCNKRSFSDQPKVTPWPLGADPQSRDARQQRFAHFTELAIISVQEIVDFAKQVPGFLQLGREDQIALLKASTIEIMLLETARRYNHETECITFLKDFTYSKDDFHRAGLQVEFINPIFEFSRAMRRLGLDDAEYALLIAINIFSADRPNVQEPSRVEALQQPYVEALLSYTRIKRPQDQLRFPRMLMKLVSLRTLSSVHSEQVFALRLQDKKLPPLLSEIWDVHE

[5] = biological target: T2, NH2-terminal HA-tagged mouse LXRβ
T2 chain: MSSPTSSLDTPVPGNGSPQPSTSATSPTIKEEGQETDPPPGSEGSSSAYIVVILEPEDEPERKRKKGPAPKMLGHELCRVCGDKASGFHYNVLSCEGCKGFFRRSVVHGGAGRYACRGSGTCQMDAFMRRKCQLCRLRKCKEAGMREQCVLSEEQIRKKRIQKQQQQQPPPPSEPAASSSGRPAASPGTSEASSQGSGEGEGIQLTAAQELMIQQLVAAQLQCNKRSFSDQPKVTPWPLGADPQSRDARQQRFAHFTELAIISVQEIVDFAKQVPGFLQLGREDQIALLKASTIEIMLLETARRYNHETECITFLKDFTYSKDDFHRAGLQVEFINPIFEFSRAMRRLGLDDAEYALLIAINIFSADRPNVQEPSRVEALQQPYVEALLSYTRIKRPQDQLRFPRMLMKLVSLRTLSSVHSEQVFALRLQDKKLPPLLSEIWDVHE

Molecule: CC(C)C[C@@H](C=O)NC(=O)[C@H](CC(C)C)NC(=O)[C@H](CC(C)C)NC(=O)OCc1ccccc1 [MG132, carbobenzyloxy-Leu-Leu-Leu-al] (Cbz-Leu-Leu-Leu-aldehyde)
- basal activity of control reporter missing the LXRE [1]: not altered
- induction of luciferase reporter driven by wildtype ABCA1 promoter [1]: inhibited the reporter to the same extent as nicotinamide
- levels of HA-LXRβ protein (HA-LXRβ): increase the steady state levels of LXR
- levels of HA-LXRβ protein when SIRT1 is inhibited by nicotinamide (HA-LXRβ; 25 μM MG132 plus 10 mM nicotinamide (lane 4 vs. lane 5)): not when SIRT1 is inhibited by nicotinamide

Molecule: O=S(=O)(c1ccccc1)N(CC(F)(F)F)c1ccc(C(O)(C(F)(F)F)C(F)(F)F)cc1 [T0901317, N-(2,2,2-trifluoro-ethyl)-N-[4-(2,2,2-trifluoro-1-hydroxy-1-trifluoromethyl-ethyl)-phenyl]-benzenesulfonamide]
- induction of LXR targets SREBP-1c, LPL and ABCA1 in liver (LXR targets; SIRT1−/− mice): blunted
- expression of LXR targets SREBP-1c, LPL and ABCA1 at the RNA level in liver (LXR targets; wildtype mice): significantly induced
- induction of plasma and hepatic triglyceride accumulation ([2]; SIRT1−/− vs wildtype mice, 10 mg/kg oral, 8 days): reduced response
- plasma cholesterol levels after feeding ([2]; SIRT1−/− vs wildtype treated mice, especially HDL size particles): Lower plasma cholesterol levels
- plasma and hepatic triglycerides [3]: elevation of plasma and hepatic triglycerides

Molecule: CC(/C=C/C(=O)NO)=C\[C@@H](C)C(=O)c1ccc(N(C)C)cc1 [TSA, Trichostatin A]
- inhibition of 22(R)—HC+9-cisRA-induced luciferase expression, wildtype ABCA1 promoter [1]: not inhibited

Molecule: NC(=O)c1cccnc1 [nicotinamide]
- suppression of apoAI-mediated [3H]cholesterol efflux (THP-1 cells): roughly three-fold
- inhibition of 22(R)—HC+9-cisRA-induced luciferase expression, wildtype ABCA1 promoter [1]: 50%
- basal activity of control reporter missing the LXRE [1]: not altered
- induction of luciferase reporter driven by wildtype ABCA1 promoter [1]: blunted the induction
- levels of HA-LXRβ protein (HA-LXRβ): elevated levels

Molecule: human SIRT1 H355Y, inactive deacetylase mutant
- amount of ubiquitin-conjugated LXR (anti-HA immunoprecipitation, western blot with anti-ubiquitin) [4]: but not the inactive mutant hSIRT1HY increased the amount of ubiquitin-conjugated LXR in transfected HEK293T cells

B1: human SIRT1 protein (protein)
chain: MADEAALALQPGGSPSAAGADREAASSPAGEPLRKRPRRDGPGLERSPGEPGGAAPEREVPAAARGCPGAAAAALWREAEAEAAAAGGEQEAQATAAAGEGDNGPGLQGPSREPPLADNLYDEDDDDEGEEEEEAAAAAIGYRDNLLFGDEIITNGFHSCESDEEDRASHASSSDWTPRPRIGPYTFVQQHLMIGTDPRTILKDLLPETIPPPELDDMTLWQIVINILSEPPKRKKRKDINTIEDAVKLLQECKKIIVLTGAGVSVSCGIPDFRSRDGIYARLAVDFPDLPDPQAMFDIEYFRKDPRPFFKFAKEIYPGQFQPSLCHKFIALSDKEGKLLRNYTQNIDTLEQVAGIQRIIQCHGSFATASCLICKYKVDCEAVRGDIFNQVVPRCPRCPADEPLAIMKPEIVFFGENLPEQFHRAMKYDKDEVDLLIVIGSSLKVRPVALIPSSIPHEVPQILINREPLPHLHFDVELLGDCDVIINELCHRLGGEYAKLCCNPVKLSEITEKPPRTQKELAYLSELPPTPLHVSEDSSSPERTSPPDSSVIVTLLDQAAKSNDDLDVSESKGCMEEKPQEVQTSRNVESIAEQMENPDLKNVGSSTGEKNERTSVAGTVRKCWPNRVAKEQISRRLDGNQYLFLPPNRYIFHGAEVYSDSEDDVLSSSSCGSNSDSGTCQSPSLEEPMEDESEIEEFYNGLEDEPDVPERAGGAGFGTDGDDQEAINEAISVKQEVTDMNYPSNKS
- amount of ubiquitin-conjugated LXR (anti-HA immunoprecipitation, western blot with anti-ubiquitin) [5]: expression of an active SIRT1 transgene (hSIRT1) but not the inactive mutant hSIRT1HY increased the amount of ubiquitin-conjugated LXR in transfected HEK293T cells
